From the kinase profiling compilation of Christmann-Franck et al. (2016)

Key:
Assay in all cases: radiometric filter-binding kinase assay
[1] = molecular target: RPS6KA5 KD1 KD2 (human) (UniProt O75582)
[2] = molecular target: PLK1 (human) (UniProt P53350)
[3] = molecular target: NEK6 (human) (UniProt Q9HC98)
[4] = molecular target: MAPK12 (human) (UniProt P53778)
[5] = molecular target: MAPK15 (human) (UniProt Q8TD08)
[6] = molecular target: CAMKK2 (human) (UniProt Q96RR4)
[7] = molecular target: CHEK1 (human) (UniProt O14757)
Chain of CHEK1 (human) (O14757 whole entry, looked up): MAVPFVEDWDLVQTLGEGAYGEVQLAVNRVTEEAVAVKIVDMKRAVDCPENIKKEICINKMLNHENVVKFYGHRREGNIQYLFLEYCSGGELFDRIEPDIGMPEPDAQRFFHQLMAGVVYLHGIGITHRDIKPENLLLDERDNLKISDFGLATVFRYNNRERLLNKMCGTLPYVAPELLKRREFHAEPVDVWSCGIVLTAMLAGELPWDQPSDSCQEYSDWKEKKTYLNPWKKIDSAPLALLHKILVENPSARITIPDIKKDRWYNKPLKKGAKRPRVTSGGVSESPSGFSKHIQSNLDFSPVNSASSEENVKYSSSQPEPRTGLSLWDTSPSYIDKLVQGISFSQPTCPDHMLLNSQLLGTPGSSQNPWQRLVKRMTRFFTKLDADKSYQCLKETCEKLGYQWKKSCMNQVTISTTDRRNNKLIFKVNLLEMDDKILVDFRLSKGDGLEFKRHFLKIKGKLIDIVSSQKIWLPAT

[8] = molecular target: MAPKAPK2 (human) (UniProt P49137)
[9] = molecular target: CSNK1D (human) (UniProt P48730)
[10] = system: SGK1 (human), O00141 [S422D]
Chain of SGK1 (human), O00141 [S422D] (O00141 whole entry S422D, looked up): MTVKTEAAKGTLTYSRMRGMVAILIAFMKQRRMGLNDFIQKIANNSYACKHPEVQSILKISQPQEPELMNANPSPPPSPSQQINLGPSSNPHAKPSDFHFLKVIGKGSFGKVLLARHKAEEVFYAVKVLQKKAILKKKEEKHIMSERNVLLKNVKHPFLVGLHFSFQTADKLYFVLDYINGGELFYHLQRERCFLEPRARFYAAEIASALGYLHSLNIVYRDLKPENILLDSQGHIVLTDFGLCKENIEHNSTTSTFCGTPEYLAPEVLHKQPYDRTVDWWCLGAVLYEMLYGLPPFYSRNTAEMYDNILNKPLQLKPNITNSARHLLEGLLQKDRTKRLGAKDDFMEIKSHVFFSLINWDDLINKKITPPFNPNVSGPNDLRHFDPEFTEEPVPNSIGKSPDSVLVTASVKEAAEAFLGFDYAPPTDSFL

[11] = system: PAK2 (human), Q13177 [T402E]
[12] = molecular target: PKN2 (human) (UniProt Q16513)
Chain of PKN2 (human) (Q16513 whole entry, looked up): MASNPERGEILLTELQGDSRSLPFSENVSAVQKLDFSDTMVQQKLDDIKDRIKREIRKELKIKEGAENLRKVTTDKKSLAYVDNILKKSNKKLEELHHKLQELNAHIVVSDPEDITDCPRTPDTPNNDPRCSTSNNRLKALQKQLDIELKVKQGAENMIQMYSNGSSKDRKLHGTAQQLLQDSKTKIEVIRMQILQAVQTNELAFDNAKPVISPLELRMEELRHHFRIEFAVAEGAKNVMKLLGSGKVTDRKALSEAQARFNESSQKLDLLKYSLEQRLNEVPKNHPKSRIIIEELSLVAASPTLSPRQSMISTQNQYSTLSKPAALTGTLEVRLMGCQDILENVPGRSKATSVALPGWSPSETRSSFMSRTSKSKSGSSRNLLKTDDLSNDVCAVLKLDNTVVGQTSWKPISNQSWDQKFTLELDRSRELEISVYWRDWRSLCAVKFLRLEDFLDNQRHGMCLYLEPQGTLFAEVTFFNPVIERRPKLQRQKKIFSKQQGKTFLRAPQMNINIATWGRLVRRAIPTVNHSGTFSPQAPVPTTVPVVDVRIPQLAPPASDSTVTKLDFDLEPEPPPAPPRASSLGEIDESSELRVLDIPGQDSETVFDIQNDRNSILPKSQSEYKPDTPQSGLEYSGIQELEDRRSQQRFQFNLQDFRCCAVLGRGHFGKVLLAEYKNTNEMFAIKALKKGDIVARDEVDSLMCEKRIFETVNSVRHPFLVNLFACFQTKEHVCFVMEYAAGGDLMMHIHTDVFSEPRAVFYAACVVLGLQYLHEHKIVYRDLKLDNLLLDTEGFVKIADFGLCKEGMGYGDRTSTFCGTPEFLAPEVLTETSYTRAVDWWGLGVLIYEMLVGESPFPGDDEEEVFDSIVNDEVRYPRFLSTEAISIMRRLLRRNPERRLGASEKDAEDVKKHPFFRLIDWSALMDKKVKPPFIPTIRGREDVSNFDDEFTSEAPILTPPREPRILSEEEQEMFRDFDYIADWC

[13] = molecular target: CLK2 (human) (UniProt P49760)
[14] = molecular target: NEK2 (human) (UniProt P51955)
Chain of NEK2 (human) (P51955 whole entry, looked up): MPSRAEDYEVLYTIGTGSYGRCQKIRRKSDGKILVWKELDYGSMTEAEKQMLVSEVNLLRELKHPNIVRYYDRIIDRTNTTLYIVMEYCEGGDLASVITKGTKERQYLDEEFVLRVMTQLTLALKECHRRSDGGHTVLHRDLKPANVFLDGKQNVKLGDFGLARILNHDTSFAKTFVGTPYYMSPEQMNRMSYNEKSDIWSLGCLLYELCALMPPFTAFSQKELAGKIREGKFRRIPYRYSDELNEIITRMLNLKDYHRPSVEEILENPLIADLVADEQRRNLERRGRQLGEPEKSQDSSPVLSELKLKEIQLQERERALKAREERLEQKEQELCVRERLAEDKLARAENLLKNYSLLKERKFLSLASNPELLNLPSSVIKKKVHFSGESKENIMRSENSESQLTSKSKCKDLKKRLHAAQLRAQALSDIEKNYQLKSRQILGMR

[15] = molecular target: PIM2 (human) (UniProt Q9P1W9)
[16] = molecular target: IKBKE (human) (UniProt Q14164)
[17] = molecular target: IGF1R (human) (UniProt P08069)
[18] = molecular target: RIPK2 (human) (UniProt O43353)
Chain of RIPK2 (human) (O43353 whole entry, looked up): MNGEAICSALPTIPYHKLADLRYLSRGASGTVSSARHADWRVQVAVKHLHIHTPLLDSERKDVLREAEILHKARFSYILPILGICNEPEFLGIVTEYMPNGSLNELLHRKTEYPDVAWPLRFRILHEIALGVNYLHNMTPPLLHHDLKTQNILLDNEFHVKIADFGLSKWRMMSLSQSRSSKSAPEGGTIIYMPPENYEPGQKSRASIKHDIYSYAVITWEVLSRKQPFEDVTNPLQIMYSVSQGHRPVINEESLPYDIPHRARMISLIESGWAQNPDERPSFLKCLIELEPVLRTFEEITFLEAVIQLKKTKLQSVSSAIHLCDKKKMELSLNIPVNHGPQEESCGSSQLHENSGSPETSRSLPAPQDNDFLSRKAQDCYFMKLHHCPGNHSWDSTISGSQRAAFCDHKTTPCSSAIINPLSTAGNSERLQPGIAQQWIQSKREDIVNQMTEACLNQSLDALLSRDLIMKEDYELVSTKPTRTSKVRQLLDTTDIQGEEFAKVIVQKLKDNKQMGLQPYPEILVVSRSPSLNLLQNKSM

[19] = molecular target: DYRK1A (human) (UniProt Q13627)
[20] = molecular target: MAPK3 (human) (UniProt P27361)
[21] = molecular target: RPS6KA3 KD1 KD2 (human) (UniProt P51812)
Chain of RPS6KA3 KD1 KD2 (human) (P51812 whole entry, looked up): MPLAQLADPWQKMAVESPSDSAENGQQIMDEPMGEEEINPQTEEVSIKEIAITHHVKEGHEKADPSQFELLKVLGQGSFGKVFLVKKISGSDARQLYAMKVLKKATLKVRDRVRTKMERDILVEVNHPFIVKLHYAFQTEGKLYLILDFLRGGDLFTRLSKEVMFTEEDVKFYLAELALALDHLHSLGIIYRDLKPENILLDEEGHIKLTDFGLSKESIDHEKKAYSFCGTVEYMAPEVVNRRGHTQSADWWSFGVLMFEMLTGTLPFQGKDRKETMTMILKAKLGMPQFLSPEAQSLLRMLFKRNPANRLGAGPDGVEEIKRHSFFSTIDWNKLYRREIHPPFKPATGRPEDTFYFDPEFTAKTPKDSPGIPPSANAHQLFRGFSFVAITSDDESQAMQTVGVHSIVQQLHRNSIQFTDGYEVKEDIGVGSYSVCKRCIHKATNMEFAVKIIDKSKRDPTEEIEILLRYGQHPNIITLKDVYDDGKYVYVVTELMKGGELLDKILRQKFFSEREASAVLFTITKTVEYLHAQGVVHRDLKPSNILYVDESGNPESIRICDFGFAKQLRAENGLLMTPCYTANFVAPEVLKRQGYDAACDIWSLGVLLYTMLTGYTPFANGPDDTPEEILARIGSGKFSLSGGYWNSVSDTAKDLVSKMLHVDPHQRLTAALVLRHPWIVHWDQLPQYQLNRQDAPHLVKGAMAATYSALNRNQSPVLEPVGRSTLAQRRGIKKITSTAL

[22] = molecular target: PAK6 (human) (UniProt Q9NQU5)
[23] = molecular target: PAK7 (human) (UniProt Q9P286)
[24] = molecular target: HIPK3 (human) (UniProt Q9H422)
[25] = molecular target: PIM3 (human) (UniProt Q86V86)
[26] = molecular target: MST4 (human) (UniProt Q9P289)
Chain of MST4 (human) (Q9P289 whole entry, looked up): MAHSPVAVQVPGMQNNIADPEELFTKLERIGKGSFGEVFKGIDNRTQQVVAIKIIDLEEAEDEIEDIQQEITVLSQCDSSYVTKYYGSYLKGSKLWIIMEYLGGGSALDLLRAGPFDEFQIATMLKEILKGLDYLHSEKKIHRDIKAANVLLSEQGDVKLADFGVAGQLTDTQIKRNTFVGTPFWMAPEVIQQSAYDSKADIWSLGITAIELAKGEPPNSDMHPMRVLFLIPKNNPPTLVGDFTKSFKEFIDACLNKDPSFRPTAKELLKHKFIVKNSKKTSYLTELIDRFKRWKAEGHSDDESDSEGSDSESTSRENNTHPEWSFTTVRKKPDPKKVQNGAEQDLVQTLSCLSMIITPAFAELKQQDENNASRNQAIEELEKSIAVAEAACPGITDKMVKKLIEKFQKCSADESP

[27] = molecular target: IRAK4 (human) (UniProt Q9NWZ3)
Chain of IRAK4 (human) (Q9NWZ3 whole entry, looked up): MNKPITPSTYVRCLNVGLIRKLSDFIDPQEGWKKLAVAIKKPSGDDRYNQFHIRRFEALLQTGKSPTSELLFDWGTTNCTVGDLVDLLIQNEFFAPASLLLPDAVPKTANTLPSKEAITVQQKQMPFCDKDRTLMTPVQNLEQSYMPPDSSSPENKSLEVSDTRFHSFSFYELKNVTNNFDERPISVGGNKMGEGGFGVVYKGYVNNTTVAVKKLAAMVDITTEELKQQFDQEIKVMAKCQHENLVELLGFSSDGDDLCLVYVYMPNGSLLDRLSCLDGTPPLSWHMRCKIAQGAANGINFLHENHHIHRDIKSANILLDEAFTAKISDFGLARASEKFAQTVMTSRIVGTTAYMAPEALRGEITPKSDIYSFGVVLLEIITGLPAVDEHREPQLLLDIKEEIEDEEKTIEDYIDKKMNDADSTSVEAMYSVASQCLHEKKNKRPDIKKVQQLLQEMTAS

[28] = molecular target: MARK1 (human) (UniProt Q9P0L2)
[29] = molecular target: SRPK1 (human) (UniProt Q96SB4)
[30] = system: AKT2 (human), P31751 [S474D]
[31] = molecular target: EPHA4 (human) (UniProt P54764)
[32] = molecular target: PAK4 (human) (UniProt O96013)
[33] = molecular target: MAP3K7 TAB1 (human) (UniProt Q15750+O43318)
[34] = molecular target: MARK2 (human) (UniProt Q7KZI7)
[35] = molecular target: MAPK14 (human) (UniProt Q16539)

Chain of NEK6 (human) (Q9HC98 whole entry, looked up): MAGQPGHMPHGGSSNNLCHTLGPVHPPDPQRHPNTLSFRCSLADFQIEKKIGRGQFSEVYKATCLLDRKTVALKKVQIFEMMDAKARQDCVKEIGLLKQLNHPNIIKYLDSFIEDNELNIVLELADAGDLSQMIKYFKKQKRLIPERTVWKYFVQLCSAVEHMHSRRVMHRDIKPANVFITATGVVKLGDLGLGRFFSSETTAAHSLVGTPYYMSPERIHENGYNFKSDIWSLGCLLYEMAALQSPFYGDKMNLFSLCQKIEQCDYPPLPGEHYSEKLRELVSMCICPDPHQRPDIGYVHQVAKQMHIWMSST

`O=C(O)c1ccc(-c2c[nH]c3ncc(-c4ccccc4)cc23)cc1C1CCCC1` gave a residual activity ([1]; compound 0.1 µM) of 94%, a residual activity ([1]; compound 1.0 µM) of 103% and a residual activity ([1]; compound 10.0 µM) of 62%. For the same compound, the residual activity ([2]; compound 0.1 µM) was 93%, the residual activity ([2]; compound 1.0 µM) was 31% and the residual activity ([2]; compound 10.0 µM) was 5%. The residual activity ([3]; compound 0.1 µM) was 104%, the residual activity ([3]; compound 10.0 µM) was 107% and the residual activity ([4]; compound 0.1 µM) was 106%. For the same compound, the residual activity ([4]; compound 1.0 µM) was 104%, the residual activity ([4]; compound 10.0 µM) was 35% and the residual activity ([5]; compound 0.1 µM) was 23%. It also gave a residual activity ([5]; compound 1.0 µM) of 32%, a residual activity ([5]; compound 10.0 µM) of 23% and a residual activity ([6]; compound 0.1 µM) of 11%. For the same compound, the residual activity ([6]; compound 1.0 µM) was 2%, the residual activity ([6]; compound 10.0 µM) was 2% and the residual activity ([7]; compound 0.1 µM) was 112%. The residual activity ([7]; compound 1.0 µM) was 108%, the residual activity ([7]; compound 10.0 µM) was 79% and the residual activity ([8]; compound 0.1 µM) was 107%. For the same compound, the residual activity ([8]; compound 1.0 µM) was 103%, the residual activity ([8]; compound 10.0 µM) was 96% and the residual activity ([9]; compound 0.1 µM) was 70%. It also gave a residual activity ([9]; compound 1.0 µM) of 12%, a residual activity ([9]; compound 10.0 µM) of 3% and a residual activity ([10]; compound 0.1 µM) of 56%. The residual activity ([10]; compound 1.0 µM) was 9%, the residual activity ([10]; compound 10.0 µM) was 1% and the residual activity ([11]; compound 0.1 µM) was 99%. The residual activity ([12]; compound 0.1 µM) was 76%, the residual activity ([12]; compound 1.0 µM) was 31% and the residual activity ([12]; compound 10.0 µM) was 5%. The residual activity ([13]; compound 0.1 µM) was 65%, the residual activity ([14]; compound 0.1 µM) was 114% and the residual activity ([14]; compound 1.0 µM) was 60%. It also gave a residual activity ([14]; compound 10.0 µM) of 27%, a residual activity ([15]; compound 0.1 µM) of 104% and a residual activity ([15]; compound 1.0 µM) of 92%. The residual activity ([15]; compound 10.0 µM) was 75%, the residual activity ([16]; compound 0.1 µM) was 91% and the residual activity ([16]; compound 1.0 µM) was 44%. The residual activity ([16]; compound 10.0 µM) was 14%, the residual activity ([17]; compound 0.1 µM) was 100% and the residual activity ([17]; compound 1.0 µM) was 103%. It also gave a residual activity ([17]; compound 10.0 µM) of 18%, a residual activity ([18]; compound 0.1 µM) of 55% and a residual activity ([19]; compound 0.1 µM) of 79%. The residual activity ([19]; compound 1.0 µM) was 47%, the residual activity ([19]; compound 10.0 µM) was 8% and the residual activity ([20]; compound 0.1 µM) was 105%. It also gave a residual activity ([20]; compound 1.0 µM) of 75%, a residual activity ([20]; compound 10.0 µM) of 39% and a residual activity ([21]; compound 0.1 µM) of 96%. For the same compound, the residual activity ([21]; compound 1.0 µM) was 97%, the residual activity ([22]; compound 0.1 µM) was 102% and the residual activity ([22]; compound 1.0 µM) was 103%. It also gave a residual activity ([22]; compound 10.0 µM) of 61%, a residual activity ([23]; compound 0.1 µM) of 110% and a residual activity ([23]; compound 1.0 µM) of 88%. It also gave a residual activity ([23]; compound 10.0 µM) of 38%, a residual activity ([24]; compound 0.1 µM) of 100% and a residual activity ([25]; compound 0.1 µM) of 90%. The residual activity ([25]; compound 1.0 µM) was 86%, the residual activity ([25]; compound 10.0 µM) was 45% and the residual activity ([26]; compound 0.1 µM) was 81%. The residual activity ([26]; compound 1.0 µM) was 68%, the residual activity ([26]; compound 10.0 µM) was 13% and the residual activity ([27]; compound 0.1 µM) was 20%. The residual activity ([27]; compound 1.0 µM) was 12%, the residual activity ([27]; compound 10.0 µM) was 12% and the residual activity ([28]; compound 0.1 µM) was 97%. For the same compound, the residual activity ([29]; compound 0.1 µM) was 82%, the residual activity ([29]; compound 1.0 µM) was 104% and the residual activity ([29]; compound 10.0 µM) was 50%. The residual activity ([30]; compound 0.1 µM) was 86%, the residual activity ([30]; compound 1.0 µM) was 98% and the residual activity ([30]; compound 10.0 µM) was 74%. For the same compound, the residual activity ([31]; compound 0.1 µM) was 103%, the residual activity ([32]; compound 0.1 µM) was 96% and the residual activity ([32]; compound 1.0 µM) was 85%. The residual activity ([32]; compound 10.0 µM) was 39%, the residual activity ([33]; compound 0.1 µM) was 115% and the residual activity ([34]; compound 0.1 µM) was 88%. It also gave a residual activity ([35]; compound 0.1 µM) of 94%, a residual activity ([35]; compound 1.0 µM) of 119% and a residual activity ([35]; compound 10.0 µM) of 106%.

`COc1ccc(-n2ncc3cnc(Nc4cc(OC)c(OC)c(OCCCN5CCN(C)CC5)c4)nc32)cc1` gave a residual activity ([1]; compound 0.1 µM) of 76%, a residual activity ([1]; compound 1.0 µM) of 34% and a residual activity ([2]; compound 0.1 µM) of 90%. For the same compound, the residual activity ([2]; compound 1.0 µM) was 91%, the residual activity ([3]; compound 0.1 µM) was 89% and the residual activity ([3]; compound 1.0 µM) was 59%. It also gave a residual activity ([4]; compound 0.1 µM) of 113%, a residual activity ([4]; compound 1.0 µM) of 95% and a residual activity ([5]; compound 0.1 µM) of 22%. It also gave a residual activity ([5]; compound 1.0 µM) of 4%, a residual activity ([6]; compound 0.1 µM) of 58% and a residual activity ([6]; compound 1.0 µM) of 28%. For the same compound, the residual activity ([7]; compound 0.1 µM) was 72%, the residual activity ([7]; compound 1.0 µM) was 20% and the residual activity ([8]; compound 1.0 µM) was 108%. The residual activity ([9]; compound 0.1 µM) was 95%, the residual activity ([9]; compound 1.0 µM) was 69% and the residual activity ([10]; compound 0.1 µM) was 107%. It also gave a residual activity ([10]; compound 1.0 µM) of 61%, a residual activity ([11]; compound 0.1 µM) of 50% and a residual activity ([11]; compound 1.0 µM) of 14%. The residual activity ([12]; compound 0.1 µM) was 57%, the residual activity ([12]; compound 1.0 µM) was 27% and the residual activity ([13]; compound 0.1 µM) was 30%. It also gave a residual activity ([13]; compound 1.0 µM) of 11%, a residual activity ([14]; compound 0.1 µM) of 22% and a residual activity ([14]; compound 1.0 µM) of 3%. For the same compound, the residual activity ([15]; compound 0.1 µM) was 108%, the residual activity ([15]; compound 1.0 µM) was 106% and the residual activity ([16]; compound 0.1 µM) was 28%. The residual activity ([16]; compound 1.0 µM) was 18%, the residual activity ([17]; compound 0.1 µM) was 104% and the residual activity ([17]; compound 1.0 µM) was 6%. The residual activity ([18]; compound 0.1 µM) was 28%, the residual activity ([18]; compound 1.0 µM) was 14% and the residual activity ([19]; compound 0.1 µM) was 57%. It also gave a residual activity ([19]; compound 1.0 µM) of 12%, a residual activity ([20]; compound 0.1 µM) of 111% and a residual activity ([20]; compound 1.0 µM) of 82%. It also gave a residual activity ([21]; compound 0.1 µM) of 38%, a residual activity ([21]; compound 1.0 µM) of 9% and a residual activity ([22]; compound 0.1 µM) of 62%. The residual activity ([22]; compound 1.0 µM) was 24%, the residual activity ([23]; compound 0.1 µM) was 53% and the residual activity ([23]; compound 1.0 µM) was 18%. For the same compound, the residual activity ([24]; compound 0.1 µM) was 69%, the residual activity ([24]; compound 1.0 µM) was 19% and the residual activity ([25]; compound 0.1 µM) was 91%. The residual activity ([25]; compound 1.0 µM) was 63%, the residual activity ([26]; compound 0.1 µM) was 90% and the residual activity ([26]; compound 1.0 µM) was 67%. It also gave a residual activity ([27]; compound 0.1 µM) of 64%, a residual activity ([27]; compound 1.0 µM) of 20% and a residual activity ([28]; compound 0.1 µM) of 63%. For the same compound, the residual activity ([28]; compound 1.0 µM) was 31%, the residual activity ([29]; compound 0.1 µM) was 104% and the residual activity ([29]; compound 1.0 µM) was 87%. The residual activity ([30]; compound 0.1 µM) was 88%, the residual activity ([30]; compound 1.0 µM) was 77% and the residual activity ([31]; compound 0.1 µM) was 14%. It also gave a residual activity ([31]; compound 1.0 µM) of 5%, a residual activity ([32]; compound 0.1 µM) of 29% and a residual activity ([32]; compound 1.0 µM) of 9%. The residual activity ([33]; compound 0.1 µM) was 14%, the residual activity ([33]; compound 1.0 µM) was 19% and the residual activity ([34]; compound 0.1 µM) was 67%. The residual activity ([34]; compound 1.0 µM) was 28%, the residual activity ([35]; compound 0.1 µM) was 98% and the residual activity ([35]; compound 1.0 µM) was 85%.
